The source made the active and inactive calls. No cut-off for these calls is given here.
Key:
Carbonic anhydrase 9 = Carbonic anhydrase 9 (Homo sapiens, UniProt Q16790); assay: Inhibition of human carbonic anhydrase 9 catalytic domain preincubated for 15 mins by CO2 hydration stopped-flow assay
Carbonic anhydrase 1 = Carbonic anhydrase 1 (Homo sapiens, UniProt P00915); assay: Inhibition of human carbonic anhydrase 1 preincubated for 15 mins by CO2 hydration stopped-flow assay
Oryctolagus cuniculus = assay: Ocular hypotensive activity in sterile hypertonic saline injected hypertensive New Zealand white rabbit assessed as reduction in intraocular pressure at 1 % administered as eye drops up to 240 mins post injection; format: functional, organism-based
Carbonic anhydrase 2 = Carbonic anhydrase 2 (Homo sapiens, UniProt P00918); assay: Inhibition of human carbonic anhydrase 2 preincubated for 15 mins by CO2 hydration stopped-flow assay

Carbonic anhydrase 1, sequence (P00915 whole entry): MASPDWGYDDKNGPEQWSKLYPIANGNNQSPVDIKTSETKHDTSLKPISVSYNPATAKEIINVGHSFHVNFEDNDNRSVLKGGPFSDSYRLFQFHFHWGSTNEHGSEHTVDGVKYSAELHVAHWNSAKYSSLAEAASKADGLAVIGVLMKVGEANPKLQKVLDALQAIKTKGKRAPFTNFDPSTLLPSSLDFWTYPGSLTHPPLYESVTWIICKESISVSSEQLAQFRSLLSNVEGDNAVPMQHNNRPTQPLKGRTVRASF

Row | SMILES | Ki (Carbonic anhydrase 9) | Ki (Carbonic anhydrase 1) | Ki (Carbonic anhydrase 2) | Activity (Oryctolagus cuniculus)
1 | O=C(S)N1CCOCC1 | 13.5 nM | – | > 2000 nM | –
2 | COc1ccc(CCNC(=O)S)cc1OC | 15.2 nM | – | – | –
3 | CN1CCN(NC(=O)S)CC1 | 7.7 nM | > 2000 nM | – | –
4 | CCCCN(CC)C(=O)S | 6.2 nM | – | > 2000 nM | –
5 | CN(Cc1ccccc1)C(=O)S | 11.7 nM | > 2000 nM | > 2000 nM | –
6 | O=C(S)N1CCN(c2cccc(Cl)c2)CC1 | 4.9 nM | – | > 2000 nM | –
7 | O=C(CN1CCN(C(=O)S)CC1)NC1CCCCC1 | 14 nM | – | – | Active

The remaining compounds from weak to strong by Ki (Carbonic anhydrase 9), led by results:

Row | Ki (Carbonic anhydrase 9) | Ki (Carbonic anhydrase 1) | Ki (Carbonic anhydrase 2) | SMILES | Activity (Oryctolagus cuniculus)
8 | 22.1 nM | – | – | CCOC(=O)CN(C)C(=O)S | –
9 | 21.5 nM | > 2000 nM | – | O=C(S)NCCc1ccccc1 | Active
10 | 12.5 nM | > 2000 nM | – | CCCN(CCC)C(=O)S | –
11 | 11.8 nM | > 2000 nM | – | O=C(S)N1CCN(c2ccc(C(F)(F)F)cc2)CC1 | –
12 | 9.2 nM | – | – | CC(C)CN(CC(C)C)C(=O)S | –
13 | 6.8 nM | – | > 2000 nM | CCCCN(CCCC)C(=O)S | –
14 | 6.5 nM | – | – | O=C(S)N1CCN(c2ccc(F)cc2)CC1 | –

Reference: ChEMBL document CHEMBL4425107, “Monothiocarbamates Strongly Inhibit Carbonic Anhydrases in Vitro and Possess Intraocular Pressure Lowering Activity in an Animal Model of Glaucoma” (J Med Chem, 2016)
